Drawing on BindingDB's records for patent US9527838 (Merck Sharp & Dohme Corp, 2016), this text covers EC50 for three compounds.

The assay concerns the target Hexokinase-4 (Human, UniProt P35557). Kind of assay: Glucokinase Activity Assay. How it is done: Recombinant human liver glucokinase was expressed as a FLAG fusion protein in E. coli, and purified on […] M2 AFFINITY GEL (Sigma). The assay was carried out at 30° C. in a 96-well plate. In the plate was distributed 69 μl each of assay buffer (25 mM Hepes Buffer: pH=7.2, 2 mM MgCl2, 1 mM ATP, 0.5 mM TNAD, 1 mM dithiothreitol), to which was added 1 μl of a DMSO solution of the compound or DMSO as control. Then, 20 μl of pre-ice-cooled enzyme mixture (FLAG-GK, 20 U/ml G6PDH) was distributed thereto, to which was added 10 μl of 25 mM glucose as substrate to initiate the reaction (final glucose concentration=2.5 mM). After starting the reaction, the absorbance at 405 nm was measured every 30 seconds for 10 minutes to evaluate the compound based on the initial increase for 5 minutes. FLAG-GK was added so that the increase of absorbance after 5 minutes fell between 0.05 to 0.1 in the presence of 1% DMSO.

Chain of Hexokinase-4 (P35557 whole entry, other chains not shown, the tested form may be a part): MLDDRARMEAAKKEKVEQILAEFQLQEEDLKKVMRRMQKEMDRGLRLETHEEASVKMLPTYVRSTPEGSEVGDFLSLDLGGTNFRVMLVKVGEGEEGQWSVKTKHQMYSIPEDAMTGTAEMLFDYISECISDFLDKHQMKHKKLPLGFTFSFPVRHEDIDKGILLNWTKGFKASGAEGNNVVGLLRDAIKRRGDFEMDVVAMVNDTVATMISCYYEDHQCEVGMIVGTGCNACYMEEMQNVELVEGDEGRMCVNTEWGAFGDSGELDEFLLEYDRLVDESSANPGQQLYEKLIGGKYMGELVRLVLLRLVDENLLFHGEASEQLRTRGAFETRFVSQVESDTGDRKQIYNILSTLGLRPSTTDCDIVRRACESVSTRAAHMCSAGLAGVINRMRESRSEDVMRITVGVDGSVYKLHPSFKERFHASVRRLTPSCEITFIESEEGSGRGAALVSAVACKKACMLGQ

For `CCOC(=O)C(C)(C)CSc1cnc(NC(=O)c2nc(Sc3nncn3C)ccc2Sc2ccc(F)cc2)s1` [US9527838, 20], the EC50 – broadly, the concentration giving half of the maximal effect – came to 16.9 nM.
In the case of `CCOC(=O)CSc1cnc(NC(=O)c2nc(Sc3ccc(F)cc3)ccc2Sc2ccc(F)cc2)s1` [US9527838, 27] it was 386 nM; in that of `CCOC(=O)Cc1nc(NC(=O)c2nc(Sc3ccc(F)cc3)ccc2Sc2ccc(F)cc2)sc1Cl` [US9527838, 29], 16000 nM.
